This experiment deals with AGEs production (BSA + Methylglyoxal). Nature of the experiment: Inhibition of AGEs production: co-incubation with BSA and MGO, fluorescence read-out. The following applies: Compound concentration 1mg/mL. The format is biochemical. As for the experimental part:
Bovine serum albumin (BSA) can interact with Methylglyoxal (MGO) to produce AGEs. The compound to be tested was co-incubated with BSA and MGO, and the level of the AGEs production was determined through detecting change of fluorescence value in the system, to thereby evaluate whether or not the compound had inhibitory effect on the AGEs production. […]
With reference to the method of Test Example 1, the inhibitory effect of the AGEs inhibitory compositions of Examples 1-3 on AGEs production was examined. The test results were as follows: Table 13 Inhibitory effect of the AGEs inhibitory compositions on AGEs production

Turning to `Cc1ncc(CO)c(CO)c1O.Cl` [Vitamin B6], where the note is “Table 9, 7 samples”, the “AGEs production inhibition rate %” value is on record as 77.6%.

Consider `Cc1ncc(C[n+]2csc(CCO)c2C)c(N)n1` [Vitamin B1], for which the “AGEs production inhibition rate %” value (Table 9, 7 samples) is listed as 87.3%.

For the compound `Cc1cc2nc3c(=O)[nH]c(=O)nc-3n(C[C@H](O)[C@H](O)[C@H](O)CO)c2cc1C` [Vitamin B2], under “Table 9, 7 samples”, the “AGEs production inhibition rate %” value is 94.3%.

For the compound `N=C(N)NN` [Aminoguanidine], the “AGEs production inhibition rate %” value (Table 1, bilberry extracts with different anthocyanin contents) was 101.1% and the “AGEs production inhibition rate %” value (Table 9, 7 samples) came to 101.1%.

Values taken from patent EP3689361A1, “APPLICATION OF CRANBERRY OR EXTRACT THEREOF IN PREPARATION OF MEDICATIONS OR HEALTH-CARE FOOD FOR TREATING, DELAYING OR ALLEVIATING AGES-RELATED DISEASES” (BY-Health Co., Ltd., priority 2018, dated 2020).
